The values below come from patent US8101581B2, “Use of D-ribose to treat cardiac arrhythmias” (Bioenergy, Inc., priority 2007, dated 2012).

The subject of one data set is atrial fibrillation. Briefly: D-ribose administered to patients with a diagnosis of atrial fibrillation. The class given is in vivo, human. The protocol:
Eight patients with a diagnosis of atrial fibrillation were administered D-ribose. It can be seen from the above data that not all patients are completely and immediately relieved of atrial fibrillation. […] Therefore, it is recommended that patients ingest 10 to 15 grams of D-ribose daily.

The conditions of data set [1]: cited from earlier work.

Each structure is given as a SMILES string. “Also recorded” adds a separate entry of the source. Like-named read-outs stand apart in the source and are kept apart here.

As to `O=C[C@H](O)[C@H](O)[C@H](O)CO` [D-ribose], the “Relief?” value is “complete, immediate” with atrial fibrillation (Patient 1, duration of AT Recent, daily amount N/R, other medication CoQ); “complete, immediate” in the data set on atrial fibrillation (Patient 2, duration, daily amount and other medications N/R); “only partial relief; also recorded: “helped”” in the data set with atrial fibrillation (Patient 3, 5 grams D-ribose daily); “delayed relief; also recorded: complete, within two” in the data set with atrial fibrillation (Patient 4, 5 grams D-ribose daily); “complete and immediate relief” with atrial fibrillation (Patient 5, duration 20 years, 10 grams D-ribose daily, CoQ, L-carnitine, Mg); “complete and immediate relief; also recorded: “practically” with atrial fibrillation (Patient 6, 10-15 grams D-ribose daily). Also, the “Relief?” value in the data set with atrial fibrillation (Patient 7, 5 grams D-ribose daily) was “complete, immediate”. The Side effects entry in the data set with atrial fibrillation (administration of low doses of D-ribose) was “no side effects”. In addition, in the data set on atrial fibrillation (patients on continued D-ribose), the “Persistence of relief of atrial fibrillation” value was “more than a year”. The Digestive symptoms result in data set [1] (dose of five grams, most people) is “without experiencing these digestive symptoms”; in data set [1] (doses over about eight grams, many people), “flatulence and diarrhea”.
